Measurements taken from US20230105108A1, “COMPOUNDS FOR THE TREATMENT OF BACTERIAL INFECTIONS AND POTENTIATION OF ANTIBIOTICS” (GEORGIA STATE UNIVERSITY RESEARCH FOUNDATION, INC., priority 2019, published 2023).
In brackets after ≈: the same amount, converted by molar mass. Structures can show the parent of a compound that is named as a salt. Where two headings read alike, the source gives them in different places.

Tests used:
E. coli (ATCC 25922) = assay: MIC determination, sensitization fold and FIC index on E. coli; assay type: cell-based; conditions: for MIC: Escherichia coli; for MIC of AB with MD-124: MD-124 concentration 5 μg/ml; for Sensitization: compound up to 25 μM
Method: (§1) Bacteria culture and MICs determination: Gram-negative bacteria were cultured in Mueller Hinton II cation-adjusted broth. Gram-positive bacteria were cultured in LB broth. Mycobacterium smegmatis was cultured in Middlebrook 7H9 Broth. MICs of antibiotics itself were determined by performing two-fold serial dilutions of antibiotics. MICs of antibiotics in the presence of bacterial sensitizers were determined by performing two-fold serial dilutions of antibiotics with or without a constant concentration of bacterial sensitizers. The MICs tests were performed on 96-well plates with a final volume of 200 μl Mueller Hinton II cation-adjusted broth in each well. Each well was inoculated with 5×10^5 CFU/ml bacteria and was incubated for 24 h at 37° C. with continuous shaking of 200 rpm. The bacterial density was then determined by OD600. Bacterial growth %=OD600 of antibiotic treatment group/OD600 of antibiotic non-treatment group. MICs was determined as the concentrations that inhibit more than 90% of bacteria growth.
(§2) Sensitization fold determination and FIC index calculations: Sensitization fold=MIC of antibiotic only/MIC of antibiotic with bacterial sensitizer. […] Since the MICs were determined by performing two-fold serial dilutions of antibiotic, so the sensitization fold can is the times of 2.
FIC index between compound a and b was calculated according to the formula below: […]
FIC≤0.5: Synergy; FIC between 0.5 and 1: Additive; FIC between 1 and […]: no interaction; FIC >4: antagonism.
(§3) Bacteria strains (as indicated in Table 5B) were cultured with rifampicin at various concentrations in the presence or absence of 10 μM of the indicated compound for 20 h at 37° C. The MIC, sensitization, cytotoxicity, and MIC on mycobacteria were tested according to methods described herein. […] The sensitization activities of compounds on MRSA were tested using rifampicin. The sensitization activities of compounds on E. coli were tested using rifampicin.

[1] = test system: NDM-1 expressing E. coli strain; assay: microbe, parasite or virus in culture; assay type: cell-based; conditions: for MIC: Escherichia coli, read-out: MIC on NDM-1 over-expression E. coli
[2] = test system: A. baumannii (ATCC 17978); assay: MIC, sensitization fold and FIC index on A. baumannii; assay type: cell-based; conditions: A. baumannii towards the antibiotic
[3] = test system: mcr-1 over-expressing E. coli strains; assay: microbe, parasite or virus in culture; assay type: cell-based; conditions: Escherichia coli
[4] = Cytotoxicity on mammalian cells (CCK-8), HEK293; assay type: cell-based; conditions: human, HEK293 cells; HEK293 cell line; 24 h
Method: (§4) Cytotoxicity test of bacterial sensitizers on mammalian cells. Cell viability was assessed by using Cell Counting Kit-8 (CCK-8, Dojindo, Japan). HEK293 or NIH3T3 cells were seeded in a 96-well plate one day before the experiment to reach 80% confluency. Cells were then incubated with various concentration of bacterial sensitizers at 37° C. with 5% CO2 for 24 h, then 10 μL of CCK-8 solution was added to each well, and the plate was incubated for an additional at 37° C. 2 h with 5% CO2. The optical density at 450 nm was recorded by plate reader; and the results were calculated as a percentage of viability compared with the untreated control.

B. subtilis = assay: MIC determination and sensitization fold on B. subtilis; assay type: cell-based; conditions: B. subtilis; for Sensitization fold: erythromycin; for MIC: Bacillus subtilis, 24 h, compound alone, read-out: MIC
[5] = Cytotoxicity on mammalian cells (CCK-8), NIH3T3; assay type: cell-based; conditions: mouse, NIH3T3 cells, 3T3 cell line
Method: as §4

MRSA (ATCC 33592) = assay: MIC determination and sensitization fold on MRSA; assay type: cell-based, methicillin-resistant Staphylococcus aureus; conditions: MRSA; rifampicin; compound at 4 μM
Method: Bacteria strains: E. coli (ATCC 25922), A. baumannii (ATCC 17978), K. pneumoniae (43816), S. maltophilia (ATCC 31559), S. typhimurium (ATCC 14028), C. werkmanii (ATCC 51114), S. aureus (ATCC 12600) and methicillin-resistant Staphylococcus aureus (MRSA, ATCC 33592) strains were purchased from ATCC. NR698 was provided.
as §1, §2, §3

HEK293 cells = assay: Cytotoxicity on mammalian cells (CCK-8), HEK293; assay type: cell-based; conditions: HEK293 cell line; 24 h
Method: as §4

[6] = Cytotoxicity in H9c2 cells (CCK-8); assay type: cell-based; conditions: rat, H9c2 cells; H9c2 cell line
Method: The cytotoxicity in H9c2 (ATCC®CRL-1446™) cells was also determined. The H9c2 cells were maintained in DMEM (Dulbecco's Modified Eagle's Medium) supplemented with 10% fetal bovine serum (MidSci; S01520HI) and 1% penicillin-streptomycin (Sigma-Aldrich; P4333) at 37° C. with 5% CO2. The H9c2 cells were seeded in 96-well plate one day before the experiment. Different concentrations of di-amidine compounds were added into the H9c2 cells. The cells were then incubated with the compounds for 24 hours at 37° C. with 5% CO2. The cell viability was tested by the CCK-8. Specifically, after 24 hour incubation, 10 μL CCK-8 was added to each well. After 3 hours incubation at 37° C., the absorbance at 450 nm was recorded by a plate reader.

[7] = NDM-1 expressing E. coli towards the antibiotic
[8] = ATCC25922, antibiotic alone (Table 14), read-out: MIC on wild-type E.coli
[9] = E. coli towards the antibiotic, MD-124 5 μg/ml
[10] = ATCC25922, 24 h, E. coli (wild type), antibiotic alone, read-out: MIC of AB only
[11] = ATCC25922, 24 h, E. coli, compound alone, read-out: MIC

SMILES | Sensitization fold (E. coli (ATCC 25922); [9]) [fold] | MIC of AB with MD-124 (E. coli (ATCC 25922); E. coli) [µg/mL] | MIC (E. coli (ATCC 25922); [10]) [µg/mL] | Sensitization fold with 5 μg/ml MD-124 [2] [fold] | MIC (B. subtilis) [µM] | MIC (E. coli (ATCC 25922); [11]) [µM] | CC50 at 24 h [5] [µM] | other results
CC1(C)S[C@@H]2[C@H](NC(=O)[C@H](N)c3ccccc3)C(=O)N2[C@H]1C(=O)O [Ampicillin] |  |  |  |  |  |  |  | MIC on wild-type E.coli (E. coli (ATCC 25922); antibiotic alone (Table 14)): 6 µg/mL; MIC of AB with 5 μg/ml MD-124 ([1]; NDM-1 expressing E. coli): 300 µg/mL; Sensitization fold with 5 μg/ml MD-124 [1, 7]: >1 fold; MFC of AB only ([1]; NDM-1 expressing E. coli, antibiotic alone): >300 µg/mL; MIC on NDM-1 over-expression E. coli ([1]; antibiotic alone (Table 14)): >300 µg/mL
CC(C)(O/N=C(\C(=O)N[C@@H]1C(=O)N2C(C(=O)[O-])=C(C[n+]3ccccc3)CS[C@H]12)c1csc(N)n1)C(=O)O [Ceftazidime, reference compound] |  |  |  |  |  |  |  | MIC (E. coli (ATCC 25922); [8]): < 0.2 µg/mL; MIC ([1]; antibiotic alone (Table 14)): > 6.25 µg/mL
O=C(O)c1cn(C2CC2)c2cc(N3CCNCC3)c(F)cc2c1=O [Ciprofloxacin, reference compound] | 4 | 0.0125 | 0.05 | 4 |  |  |  | 
CC[C@H]1OC(=O)[C@H](C)[C@@H](O[C@H]2C[C@@](C)(OC)[C@@H](O)[C@H](C)O2)[C@H](C)[C@@H](O[C@@H]2O[C@H](C)C[C@H](N(C)C)[C@H]2O)[C@](C)(OC)C[C@@H](C)C(=O)[C@H](C)[C@@H](O)[C@]1(C)O [Clarithromycin] |  |  |  |  |  |  |  | MIC ([3]; mcr-1 over-expression E. coli strain (MIC of polymyxin B 30 μg/ml), read-out: MIC of AB only): 25 µg/mL; MIC ([3]; read-out: MIC of AB with 5 μg/ml MD-124, mcr-1 over-expression E. coli strain (MIC of polymyxin B 30 μg/ml)): ≤ 0.2 µg/mL
NC[C@H]1O[C@H](O[C@H]2[C@H](O)[C@@H](O[C@H]3O[C@H](CO)[C@@H](O)[C@H](N)[C@H]3O)[C@H](N)C[C@@H]2N)[C@H](O)[C@@H](O)[C@@H]1O [Kanamycin] |  |  |  | 2 |  |  |  | 
CC(C)NC(=N)c1ccc(OCc2cccc(COc3ccc(C(=N)NC(C)C)cc3)c2F)cc1 [MD-110, 1,3-Bis{(4-isopropylamidino)-phenoxymethyl}-2-fluorobenzene dihydrochloride] |  |  |  |  | 25 | 25 | > 100 | CC50 at 24 h [4]: > 100 µM; Sensitization fold (B. subtilis; compound at 6 μM): No effect at 6 μM.; Sensitization (E. coli (ATCC 25922); E. coli, rifampicin): No effect up to 25 μM.; Sensitization fold (MRSA (ATCC 33592)): 16-fold at 4 μM.
COc1cc(C(=N)N)ccc1OCc1cc(COc2ccc(C(=N)N)cc2OC)cc(C(C)(C)C)c1 [MD-114, 1,3-Bis {[4-amidino-2-methoxy)-phenoxymethyl]}-5-(tert-butyl)benzene dihydrochloride] |  |  |  |  | 25 | 100 | 50 | CC50 (HEK293 cells): 100 µM; Sensitization fold (B. subtilis; compound at 12 μM): 8-fold at 12 μM; Sensitization fold (E. coli (ATCC 25922); E. coli, rifampicin, compound at 12.5 μM): 8-fold at 12.5 μM
Cc1cc(CSc2ccc(C3=NCCN3)cc2)cc(CSc2ccc(C3=NCCN3)cc2)c1 [MD-118, 1,3-Bis {(4-(2-imidazolino))-thiophenoxymethyl}-5-methylbenzene dihydrochloride] |  |  |  |  | > 25 | > 50 | 12.5 | CC50 at 24 h [4]: 25 µM; Sensitization fold (B. subtilis; compound at 3 μM): 4-fold at 3 μM; Sensitization fold (B. subtilis; compound at 6 μM): 16-fold at 6 μM,; Sensitization (E. coli (ATCC 25922); E. coli, rifampicin): No effect up to 25 μM.
Cc1cc(COc2ccc(C3=NCCN3)cc2)cc(COc2ccc(C3=NCCN3)cc2)c1 [MD-129, 1,3-Bis {(4-(2-imidazolino))-phenoxymethyl}-5-methylbenzene dihydrochloride] |  |  |  |  | > 50 | > 50 | 25 | CC50 at 24 h [6]: 25 µM; CC50 at 24 h [4]: 50 µM; Sensitization fold (B. subtilis; compound at 12 μM): 4-fold at 12 μM; Sensitization fold (E. coli (ATCC 25922); 10 μM compound, rifampicin as the antibiotic (Table 6)): 1 fold; Sensitization (E. coli (ATCC 25922); E. coli, rifampicin): No effect up to 25 μM; sensitization activity (E. coli (ATCC 25922); rifampicin, compound at up to 10 μM): no sensitization activity
C[C@@H](O)[C@H]1C(=O)N2C(C(=O)O)=C(S[C@@H]3CN[C@H](C(=O)N(C)C)C3)[C@H](C)[C@H]12 [Meropenem, reference compound] | 1 | 0.063 | 0.063 |  |  |  |  | MIC (E. coli (ATCC 25922); [8]): 0.03 µg/mL; MIC ([1]; antibiotic alone (Table 14)): 12.5 µg/mL (≈ 32.6 µM); Sensitization fold with 5 μg/ml MD-124 [1, 7]: 2 fold
CCOc1ccc2ccccc2c1C(=O)N[C@@H]1C(=O)N2[C@@H]1SC(C)(C)[C@@H]2C(=O)O [Nafcillin, reference compound] | >4 | 75 | > 300 | 2 |  |  |  | 
CN(C)[C@@H]1C(O)=C(C(N)=O)C(=O)[C@@]2(O)C(O)=C3C(=O)c4c(O)cccc4[C@@](C)(O)[C@H]3C[C@@H]12 [Tetracycline, reference compound] | 2 | 0.6 | 1.2 | 2 |  |  |  | Sensitization fold with 5 μg/ml MD-124 [1]: 4 fold
COc1cc(Cc2cnc(N)nc2N)cc(OC)c1OC [Trimethoprim, reference compound] | 2 | 1.25 | 2.5 | 2 |  |  |  | 
